# Laboratory results taken from patent US20110224231A1, “Novel Lactams as Beta Secretase Inhibitors” (Pfizer Inc., priority 2008, published 2011).
# Molecular target: T1, soluble human BACE (Homo sapiens, UniProt P56817)
# T1 construct: cells secreting human recombinant soluble BACE; made in house; conditioned medium
# Experiment: BACE activity Cell Free Assay (ELISA of cleaved synthetic APP substrate)
# Format: biochemical
# Experimental: A synthetic APP substrate that can be cleaved by beta˜secretase and having N-terminal biotin is used to assay beta-secretase activity in the presence or absence of the inhibitory compounds. […] The substrate and test compounds are added to 384 well polypropylene plates. The reaction is initiated by the addition of soluble BACE enzyme to a final volume of 12.5 μL per well. The final assay conditions are: 0.001˜300 μM compound inhibitor, 0.05M sodium acetate (pH 4.5), 3 μM substrate, soluble human BACE, and 2% DMSO. Concentrated conditioned media from cells secreting human recombinant soluble BACE was titrated to provide a source of BACE enzyme. The cell media can be used as either a crude BACE prep or BACE can be purified using any number of techniques, including immobilized BACE inhibitor purification columns. The assay mixture is incubated for 1 hour at 37° C., and the reaction is quenched by the addition of an equal volume of 0.1M Tris, pH 8. Half of the quenched mix is incubated on clear streptavidin coated 384 well polystyrene plates for 1 hour. An ELISA is then performed using an in˜house antibody that specifically recognizes the new C˜terminus created after cleavage by BACE. […] (These polyclonal antibodies were raised in rabbits by immunizing with antigen comprised of six amino acid residues present at the carboxy terminus of the wild-type soluble APPbeta sequence (NH2-ISEVKM-COOH) or seven amino acid residues present at the carboxy terminus of the Swedish mutation at the beta cleavage site (NH2-EISEVNL˜COOH) conjugated to keyhole limpet hemacyanin by methods known to those skilled in the art.) A secondary anti˜species Horseradish Peroxidase (HRP) conjugated antibody is then utilized. The readout, following assay development with TMB substrate and quenching with 0.09M sulfuric acid, is absorbance at 450 nm.
# T1 sequence (P56817 46-457 limits assumed): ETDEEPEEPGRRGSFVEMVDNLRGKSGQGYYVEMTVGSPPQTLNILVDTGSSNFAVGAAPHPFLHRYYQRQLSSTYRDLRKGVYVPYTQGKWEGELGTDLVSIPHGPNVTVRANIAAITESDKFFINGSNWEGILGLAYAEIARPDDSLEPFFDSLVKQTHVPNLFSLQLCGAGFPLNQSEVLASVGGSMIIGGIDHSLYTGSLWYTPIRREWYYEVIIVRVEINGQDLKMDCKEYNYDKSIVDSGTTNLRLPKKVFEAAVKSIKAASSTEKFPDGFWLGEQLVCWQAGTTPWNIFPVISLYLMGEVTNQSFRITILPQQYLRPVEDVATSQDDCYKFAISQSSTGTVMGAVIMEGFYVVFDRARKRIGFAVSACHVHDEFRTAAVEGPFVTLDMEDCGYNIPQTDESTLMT
row,SMILES,IC50 [µM]
1,"CC1CC2(C=CC(=O)N2c2cccc(F)c2)CCN1Cc1cccc(-c2ccc(C(F)(F)F)cn2)c1 (racemic) [Example 30, Racemic (5R,7S),(5S,7R)-1-(3-fluorophenyl)-7-methyl-8-{3-[5-(trifluoromethyl)pyridin-2-yl]benzyl}-1,8-diazaspiro[4.5]dec-3-en-2-one]",100 to 300
2,"CCNc1ccc(CN2CCC3(C=CC(=O)N3c3cccc(F)c3)CC2C)cn1 (racemic) [Example 31, Racemic (5R,7S),(5S,7R)-8-{[6-(ethylamino)pyridin-3-yl]methyl}-1-(3-fluorophenyl)-7-methyl-1,8-diazaspiro[4.5]dec-3-en-2-one]",100 to 300
3,"CCCNc1ccc(CN2CCC3(C=CC(=O)N3c3cccc(F)c3)CC2C)cn1 (racemic) [Example 32, Racemic (5R,7S),(5S,7R)-1-(3-fluorophenyl)-7-methyl-8-{[6-(propylamino)pyridin-3-yl]methyl}-1,8-diazaspiro[4.5]dec-3-en-2-one]",100 to 300
4,"CCOc1cccc(CN2CCC3(CCC(=O)N3c3cccc(F)c3)CC2C)c1 (racemic) [Example 33, Racemic (5R,7S),(5S,7R)-8-(3-ethoxybenzyl)-1-(3-fluorophenyl)-7-methyl-1,8-diazaspiro[4.5]decan-2-one]",100 to 300
5,"Cc1ccc(Oc2cccc(CN3CCC4(CCC(=O)N4c4cccc(F)c4)CC3C)c2)cc1 (racemic) [Example 34, Racemic (5R,7S),(5S,7R)-1-(3-fluorophenyl)-7-methyl-8-[3-(4-methylphenoxy)benzyl]-1,8-diazaspiro[4.5]decan-2-one]",10 to 100
6,"COc1ccc(Oc2cccc(CN3CCC4(CCC(=O)N4c4cccc(F)c4)CC3C)c2)cc1 (racemic) [Example 35, Racemic (5R,7S),(5S,7R)-1-(3-fluorophenyl)-8-[3-(4-methoxyphenoxy)benzyl]-7-methyl-1,8-diazaspiro[4.5]decan-2-one]",10 to 100
7,"CC1CC2(CCC(=O)N2c2cccc(F)c2)CCN1Cc1cccc(S(=O)(=O)N2CCCC2)c1 (racemic) [Example 36, Racemic (5R,7S),(5S,7R)-1-(3-fluorophenyl)-7-methyl-8-[3-(pyrrolidin-1-ylsulfonyl)benzyl]-1,8-diazaspiro[4.5]decan-2-one]",100 to 300
8,"CC1CC2(CCC(=O)N2c2cccc(F)c2)CCN1Cc1ccc(O)cc1 (racemic) [Example 37, Racemic (5R,7S),(5S,7R)-1-(3-fluorophenyl)-8-(4-hydroxybenzyl)-7-methyl-1,8-diazaspiro[4.5]decan-2-one]",10 to 100
9,"Cc1cc(CN2CCC3(CCC(=O)N3c3cccc(F)c3)CC2C)ccc1O (racemic) [Example 38, Racemic (5R,7S),(5S,7R)-1-(3-fluorophenyl)-8-(4-hydroxy-3-methylbenzyl)-7-methyl-1,8-diazaspiro[4.5]decan-2-one]",10 to 100
10,"CCCn1nccc1CN1CCC2(CCC(=O)N2c2cccc(F)c2)CC1C (racemic) [Example 39, Racemic (5R,7S),(5S,7R)-1-(3-fluorophenyl)-7-methyl-8-[(1-propyl-1H-pyrazol-5-yl)methyl]-1,8-diazaspiro[4.5]decan-2-one]",100 to 300
11,"CC1CC2(CCC(=O)N2c2cccc(F)c2)CCN1Cc1ccc2[nH]ccc2c1 (racemic) [Example 40, Racemic (5R,7S),(5S,7R)-1-(3-fluorophenyl)-8-(1H-indol-5-ylmethyl)-7-methyl-1,8-diazaspiro[4.5]decan-2-one]",100 to 300
12,"CC1CC2(CCC(=O)N2c2cccc(F)c2)CCN1Cc1ccc(O)c(C#N)c1 (racemic) [Example 41, Racemic (5R,7S),(5S,7R)-1(3-fluorophenyl)-7-methyl-2-oxo-1,8-diazaspiro[4.5]dec-8-yl]methyl}-2-hydroxybenzonitrile]",10 to 100
13,"COc1cc(CN2CCC3(CCC(=O)N3c3cccc(F)c3)CC2C)ccc1O (racemic) [Example 42, Racemic (5R,7S),(5S,7R)-1-(3-fluorophenyl)-8-(4-hydroxy-3-methoxybenzyl)-7-methyl-1,8-diazaspiro[4.5]decan-2-one]",10 to 100
14,"COc1ccc(F)c(CN2CCC3(CCC(=O)N3c3cccc(F)c3)CC2C)c1 (racemic) [Example 43, Racemic (5R,7S),(5S,7R)-8-(2-fluoro-5-methoxybenzyl)-1-(3-fluorophenyl)-7-methyl-1,8-diazaspiro[4.5]decan-2-one]",100 to 300
15,"CC1CC2(CCC(=O)N2c2cccc(F)c2)CCN1Cc1ccc(O)c(Cl)c1 (racemic) [Example 44, Racemic (5R,7S),(5S,7R)-8-(3-chloro-4-hydroxybenzyl)-1-(3-fluorophenyl)-7-methyl-1,8-diazaspiro[4.5]decan-2-one]",10 to 100
16,"CC(C)Oc1cccc(CN2CC[C@]3(CCC(=O)N3c3cccc(F)c3)C[C@@H]2C)c1 (racemic) [Example 45, Racemic (5R,7S),(5S,7R)-1-(3-fluorophenyl)-8-(3-isopropoxybenzyl)-7-methyl-1,8-diazaspiro[4.5]decan-2-one]",10 to 100
17,"CCCOc1cccc(CN2CCC3(CCC(=O)N3c3cccc(F)c3)CC2C)c1 (racemic) [Example 46, Racemic (5R,7S),(5S,7R)-1-(3-fluorophenyl)-7-methyl-8-(3-propoxybenzyl)-1,8-diazaspiro[4.5]decan-2-one]",10 to 100
18,"CCCCOc1cccc(CN2CCC3(CCC(=O)N3c3cccc(F)c3)CC2C)c1 (racemic) [Example 47, Racemic (5R,7S),(5S,7R)-8-(3-butoxybenzyl)-1-(3-fluorophenyl)-7-methyl-1,8-diazaspiro[4.5]decan-2-one]",100 to 300
19,"CC(C)COc1cccc(CN2CCC3(CCC(=O)N3c3cccc(F)c3)CC2C)c1 (racemic) [Example 48, Racemic (5R,7S),(5S,7R)-1-(3-fluorophenyl)-8-(3-isobutoxybenzyl)-7-methyl-1,8-diazaspiro[4.5]decan-2-one]",100 to 300
20,"CC1CC2(CCC(=O)N2c2cccc(F)c2)CCN1Cc1cccc(-c2cccnc2)c1 (racemic) [Example 49, Racemic (5R,7S),(5S,7R)-1-(3-fluorophenyl)-7-methyl-8-(3-pyridin-3-ylbenzyl)-1,8-diazaspiro[4.5]decan-2-one]",100 to 300
21,"CC1CC2(CCC(=O)N2c2cccc(F)c2)CCN1Cc1cccc(OC2CCCC2)c1 (racemic) [Example 50, Racemic (5R,7S),(5S,7R)-8-[3-(cyclopentyloxy)benzyl]-1-(3-fluorophenyl)-7-methyl-1,8-diazaspiro[4.5]decan-2-one]",100 to 300
22,"Cc1ccncc1-c1cccc(CN2CCC3(CCC(=O)N3c3cccc(F)c3)CC2C)c1 (racemic) [Example 51, Racemic (5R,7S),(5S,7R)-1-(3-fluorophenyl)-7-methyl-8-[3-(4-methylpyridin-3-yl)benzyl]-1,8-diazaspiro[4.5]decan-2-one]",10 to 100
23,"CC1CC2(CCC(=O)N2c2cccc(F)c2)CCN1Cc1cccc(Oc2ccccc2)c1 (racemic) [Example 52, Racemic (5R,7S),(5S,7R)-1-(3-fluorophenyl)-7-methyl-8-(3-phenoxybenzyl)-1,8-diazaspiro[4.5]decan-2-one]",10 to 100
24,"CC1CC2(CCC(=O)N2c2cccc(F)c2)CCN1Cc1cc(Br)ccc1F (racemic) [Example 53, Racemic (5R,7S),(5S,7R)-8-(5-bromo-2-fluorobenzyl)-1-(3-fluorophenyl)-7-methyl-1,8-diazaspiro[4.5]decan-2-one]",100 to 300
25,"CC1CC2(CCC(=O)N2c2cccc(F)c2)CCN1Cc1nc(-c2ccc(C#N)cc2)cs1 (racemic) [Example 54, Racemic 4-(2-{[(5R,7S),(5S,7R)-1-(3-fluorophenyl)-7-methyl-2-oxo-1,8-diazaspiro[4.5]dec-8-yl]methyl}-1,3-thiazol-4-yl)benzonitrile]",100 to 300
26,"CC1CC2(CCC(=O)N2c2cccc(F)c2)CCN1Cc1cccc(Oc2ccc(Cl)cc2)c1 (racemic) [Example 55, Racemic (5R,7S),(5S,7R)-8-[3-(4-chlorophenoxy)benzyl]-1-(3-fluorophenyl)-7-methyl-1,8-diazaspiro[4.5]decan-2-one]",10 to 100
27,"CC(=O)Nc1ccc(CN2CCC3(C=CC(=O)N3c3cccc(F)c3)CC2C)cc1 (racemic) [Example 59, Racemic N-(4-{[(5R,7S),(5S,7R)-1-(3-fluorophenyl)-7-methyl-2-oxo-1,8-diazaspiro[4.5]-3-en 8-yl]methyl}phenyl)acetamide]",1 to 10
28,"CC1CC2(C=CC(=O)N2c2cccc(F)c2)CCN1Cc1ccnn1CC(F)(F)F (racemic) [Example 60, Racemic (5R,7S),(5S,7R)-1-(3-fluorophenyl)-7-methyl-8-{[1-(2,2,2-trifluoroethyl)-1H-pyrazol-5-yl]methyl}-1,8-diazaspiro[4.5]dec-3-en-2-one]",10 to 100
29,"CC1CC2(C=CC(=O)N2c2cccc(F)c2)CCN1Cc1c[nH]c2ccc(C#N)cc12 (racemic) [Example 61, Racemic 3-{[(5R,7S),(5S,7R)-1-(3-fluorophenyl)-7-methyl-2-oxo-1,8-diazaspiro[4.5]dec-3-en-8-yl]methyl}-1H-indole-5-carbonitrile]",10 to 100
